Measurements taken from US7615380B2, “Methods for modulating an immune response by modulating KRC activity” (President and Fellows of Harvard College, priority 2001, dated 2009).

Key:
NFκB = NFκB luciferase reporter transfection assay in 293T cells; format: cell-based, human
Procedure: FIGS. 2(A)-2(C) depicts KRC preventing TRAF-dependent NFkB activation. Inhibition of TRAF2 (FIG. 2(A)), TRAF5 (FIG. 2(B)) and TRAF6 (FIG. 2(C)) mediated activation of NFkB by ectopically expressed KRC. 293 T cells (3×10^5 ) were transfected with 25 ng of NFkB luciferase reporter plasmid, 50 ng of CMVβGal and 1 μg of each indicated plasmid and 24 hours post transfection cells were harvested. Data from at least five experiments normalized for β galactosidase activity are shown. Vec refers to the empty MYC vector without the addition of TRAFs.
293 T cells (3×10^5 ) were transfected with 25 ng of NFκB luciferase reporter plasmid, 50 ng of CMVβGal and 1 μg of each indicated plasmid and 24 hours post transfection cells were stimulated for 4 hours with 10 ng/ml of TNFα. (A) KRC and KRC tr (B) dominant negative and antisense KRC (C) antisense KRC in the presence of exogenous TRAF2. Data from at least five experiments normalized for β galactosidase activity are shown.
HEK293 cells ([…] per well) were seeded in 6 well plates, and 12 h later cells were transfected with EFECTENE™ (Qiagen) with 25 ng of a 2XNFκB-luciferase (Luc) reporter gene plasmid and 0.5 μg of the indicated TRAF and KRC expression vectors. Total amounts of transfected DNA were kept constant by supplementing with control empty expression vector plasmids as needed. Cell extracts were prepared 24 h after transfection, and reporter gene activity was determined via the luciferase assay system (PROMEGA). PRSV-βGal vector (50 ng) was used to normalize for transfection efficiency by measuring β galactosidase activity using the Galacton-PLUS substrate system (TROPIX, Inc.). Whenever indicated, the cells were treated for 4 hours with TNFα or IL-1 (10 ng/ml). To generate stable transfectants, EFECTENE™ mediated transfection of the RAW cell line was performed and clones were selected and maintained in complete medium supplemented with G418 (2 mg/ml).

AP-1 = AP-1 luciferase/GFP reporter in 293T cells; format: cell-based, human
Procedure: FIG. 21(A) 293T cells were transfected with c-Jun and myc-KRCtr. 48 hours later, lysates were immunoprecipitated with anti-Myc antibody. Immunoprecipitates were probed by western blotting with anti-c-Jun antibody. FIG. 21(B) (left panel) 293T cells were cotransfected with c-Jun and full length His-KRC. 48 hours later, lysates were immunoprecipitated with anti-His antibody (DE8 Omniprobe) and precipitates were probed by western blotting with anti-c-Jun antibody. (right panel) In vitro translated and S35-labelled c-Jun and His-KRCtr were mixed and immunoprecipitated with anti-His antibody. Recovered c-Jun protein was visualized by autoradiography. FIG. 21(C) Jurkat or EL4 T cells were stimulated with PMA plus ionomycin for 45 minutes. Lysates were immunoprecipitated with anti-c-Jun antibody, and immunoprecipitates were probed with specific anti-KRC rabbit antisera. […] 24 hours later, Luciferase activity was determined as above. […] 24 hours later, luciferase activity was determined as above. […]
To examine the functional consequences of AP-1 degradation by KRC, cotransfection experiments in 293T cells with sense or antisense KRC together with a luciferase-tagged AP-1 reporter construct were performed. […] Conversely, cotransfection of antisense KRC increased AP-1 transactivation as evidenced by an increased number of GFP+ cells as well as an increase in the intensity of fluorescence per cell in. […]

## KRC: full-length KRC zinc finger protein (SEQ ID NO:2) overexpressed from an expression vector
NFκB; 293T cells
  NFκB activation induced by TRAF5 and TRAF6: substantially but not completely affected
NFκB; 293T cells, absence of exogenous TRAFs
  NFkB-dependent transactivation: blocked NFkB-dependent transactivation
NFκB; 293T cells, exogenous TRAF2
  TRAF2-induced NFκB activation: blocked TRAF2-induced NFκB activation
NFκB; 293 cells, 10 ng/ml TNFα 4 hours
  TNFα-induced NFκB activation: strongly inhibited TNFα-induced NFκB activation
AP-1; AP-1 luciferase reporter
  c-Jun and c-Jun plus c-Fos AP-1 activity enhancement: approximately 5 fold
AP-1; sense or antisense KRC cotransfection
  AP-1 activity (luciferase-tagged AP-1 reporter): decreased stimulation of AP-1 activity
